In US20250270208A1, “BICYCLIC HETEROCYCLES AS MRGPRX2 ANTAGONISTS” (Incyte Corporation, priority 2023, published 2025):

Experiments:
Assay type in all cases: cell-based
MRGPRX2 [1] = biological target: T1, MRGPRX2 (Homo sapiens, UniProt Q96LB1); experiment: MRGPRX2 β-Arrestin assay; parameters: host or cells: PathHunter CHO-K1; details: PathHunter CHO-K1 MRGPRX2 β-Arrestin cell line; agonist Cortistatin 14 0.25 μM
T1 sequence (Q96LB1 1-330): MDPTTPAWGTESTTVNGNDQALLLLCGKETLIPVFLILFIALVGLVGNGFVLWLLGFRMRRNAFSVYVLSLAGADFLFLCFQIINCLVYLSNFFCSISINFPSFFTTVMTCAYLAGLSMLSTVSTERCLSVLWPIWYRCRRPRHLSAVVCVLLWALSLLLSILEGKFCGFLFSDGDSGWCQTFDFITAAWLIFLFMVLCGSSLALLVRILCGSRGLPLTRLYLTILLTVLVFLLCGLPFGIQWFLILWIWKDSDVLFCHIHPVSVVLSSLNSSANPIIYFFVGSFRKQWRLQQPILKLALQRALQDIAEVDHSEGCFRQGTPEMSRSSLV
Source text: This assay measures compound inhibition of β-Arrestin recruitment, which is part of the G protein-independent pathway that results from the ligand-activated GPCR phosphorylation by specific GPCR kinases. The PathHunter CHO-K1 MRPGRX2 β-Arrestin Cell line stably expressing ProLink tagged MRGPRX2 and Enzyme Acceptor Tagged β-Arrestin was purchased from Eurofins DiscoverX, (Fremont, CA).
The cells were maintained in culture medium from the Europhins DiscoverX Cell Culture Kit-107 which includes FBS, hygromycin B and G418. For the assay, the cells were harvested and were resuspended with Cell Plating Reagent 2 (Eurofins DiscoverX). Cells were added 10000 cells in 25 μL/well to a 384-well black cell culture plate (Greiner VWR, Radnor, PA) which contained 125 nL/well of compound at a selected serially diluted concentration range or DMSO. The plate was incubated at 37° C. with 5% CO2 for 1 h. 2 μL/well of agonist Cortistatin 14 was diluted in Protein Dilution Buffer, (Eurofins DiscoverX) for a final concentration of 0.25 μM, was added and the plate was incubated at 37° C. with 5% CO2 for 90 min. 14 μL/well of Detection Reagent Mix (PathHunter Detection Kit, Eurofins DiscoverX) was added to the plates and further incubated for 1 h in the dark. Plates were read on the PHERAstar microplate reader (BMG Labtech Cary, NC) measuring luminescence 0.1 to 1 s per well. Data was normalized using DMSO only wells and wells with high concentration of reference antagonist as controls. Compound IC50 curves were globally fitted with 3- or 4-parameter Hill equation in a Genedata Screener (Genedata Basel, Switzerland).

MRGPRX2 [2] = biological target: T1, MRGPRX2; experiment: MRGPRX2 FLIPR calcium mobilization assay; parameters: host or cells: CHO-K1; details: CHO-K1 cells stably expressing human MRGPRX2; Ca2+ release; agonist Cortistatin-14 at EC80
Protocol: Chinese hamster ovary (CHO-K1) cells stably expressing human MRGPRX2 were purchased from Genescript (Piscataway, NJ). The cells were maintained in culture medium (Ham's F-12K) containing 10% (v/v) FBS, 200 μg/mL Zeocin, 100 units/mL penicillin G and 100 μg/mL streptomycin (Life Technologies, Carlsbad, CA). For the assay, the cells were harvested and resuspended with culture medium without Zeocin before plating at 8000 cells per well in 20 μL in 384-well black clear bottom cell culture plates (VWR, Radnor, PA). After 24 hour culture at 37° C. and 5% CO2, the cells were loaded with 20 μL/well of calcium dye (FLIPR Calcium 6 Assay Kit, Molecular Devices, San Jose, CA) diluted in loading buffer (1× Hank's Balanced Salt Solution (HBSS), 5 mM probenecid, 20 mM 4-(2-hydroxyethyl)-1-piperazineethanesulfonic acid (HEPES), pH 7.4, VWR, Radnor, PA) followed with 45 min incubation at 37° C. and 40 min. at r.t. in the dark. Cells were then treated with the addition of 10 uL/well test compounds with a range of increasing concentrations diluted in the assay buffer (1×HBSS, 20 mM HEPES, pH 7.4, VWR, Radnor, PA) with FLIPR Penta (Molecular Devices. San Jose, CA) and incubated for 30 min. at r.t. Ca^2+ release was measured with FLIPR Penta with 10 s basal fluorescence measurement, then 12.5 μL of 5× agonist Cortistatin-14 (Tocris, Minneapolis, MN) at final concentration corresponding to the EC80 were added followed with continued fluorescence signal monitoring for an additional 110 s. The base line adjusted (median of first 10 s base line) max value of the Relative Fluorescence Unit (RFU) was plotted against compound concentrations. Wells with no compound were served as the positive controls, and wells with high concentration of reference antagonist were used as negative controls. IC50 curves were globally fitted with 3- or 4-parameter Hill equation in a Genedata Screener (Genedata Basel, Switzerland).

MRGPRX2 [3] = biological target: T1, MRGPRX2; experiment: MRGPRX2 IP1 HTRF assay; parameters: host or cells: CHO-K1; details: CHO-K1 cells stably expressing human MRGPRX2; IP1 accumulation; agonist Cortistatin 14 1 μM
Protocol: This assay measures compound inhibition of myo-Inositol 1 phosphate (IP1) accumulation in CHO-K1 cells. Chinese hamster ovary (CHO-K1) cells stably expressing human MRGPRX2 were purchased from GenScript (Piscataway, NJ).
For the HTRF IP1 determination, an IP-One GqKit (Perkin Elmer Cisbio, Waltham, MA), which includes all reagents and buffers in this protocol, was used. The cells were maintained in culture medium (Ham's F-12K) containing 10% (v/v) FBS, and 200 μg/mL Zeocin. For the assay, the cells were harvested and resuspended in culture medium with 2% FBS and without Zeocin, then were passed through a 40 μm filter. Cells were added at 20000 cells in a 5 μL/well to a 384-well white small volume cell culture plate (Greiner VWR, Radnor, PA) which contained 50 nL/well of test compound serially diluted at a selected concentration range in DMSO. 5 μL/well of prepared 2× Stimulation Buffer 2 was then added to plates and was incubated at 37° C. with 5% CO2 for 1 h. 5 μL/well of agonist Cortistatin 14 (Bio-TechneR&D Systems, Minneapolis, MN) in 1× Stimulation Buffer 2, for a 1 μM final concentration, was then added to plates and incubated at 37° C. with 5% CO2 for 1 h. 6 μL/well of 1:20 diluted Detection Reagent Mix (d2 and Cryptate) was added to the plates and incubated for 1 h in the dark. Plates were read on the PHERAstar microplate reader (BMG Labtech Cary, NC) to determine the HTRF ratio of the acceptor and donor emission signals. The IP1 concentrations were calculated from a standard curve following the IP-One GQ kit instructions. Wells with DMSO only and wells with high concentration of reference antagonist were used as controls for normalization. Compound IC50 curves were globally fitted with 3- or 4-parameter Hill equation in a Genedata Screener (Genedata Basel, Switzerland).

Row | Structure (SMILES) | IC50 (MRGPRX2 [1]) [nM] | IC50 (MRGPRX2 [2]) [nM] | IC50 (MRGPRX2 [3]) [nM]
1 | Cn1c(C#N)cnc1N[C@@H]1CCC[C@H](Nc2cc(C(F)(F)F)nc3ccc(Cl)cc23)C1 [Example 20, 2-(((1R,3S)-3-((6-Chloro-2-(trifluoromethyl)quinolin-4-yl)amino)cyclohexyl)amino)-1-methyl-1H-imidazole-5-carbonitrile] | 0.1 to 100 | 0.1 to 100 | 0.1 to 100
2 | Cn1cnc2ccnc(N[C@H]3CC[C@@H](Nc4cc(C(F)(F)F)nc5ccccc45)CC3)c21 [Example 22, (1s,4s)-N^1-(3-Methyl-3H-imidazo[4,5-c]pyridin-4-yl)-N^4-(2-(trifluoromethyl)quinolin-4-yl)cyclohexane-1,4-diamine] | 0.1 to 100 | 0.1 to 100 | 100 to 1000
3 | Cn1cnc2ccnc(N[C@H]3CC[C@@H](Nc4cc(C(F)(F)F)nc5ccc(F)cc45)CC3)c21 [Example 23, (1s,4s)-N^1-(6-Fluoro-2-(trifluoromethyl)quinolin-4-yl)-N^4-(3-methyl-3H-imidazo[4,5-c]pyridin-4-yl)cyclohexane-1,4-diamine] | 0.1 to 100 | 0.1 to 100 | 0.1 to 100
4 | FC(F)(F)c1cc(N[C@H]2CCC[C@@H](Nc3nnc4n3CCCC4)C2)c2cc(Cl)ccc2n1 [Example 35, (1S,3R)-N^1-(6-Chloro-2-(trifluoromethyl)quinolin-4-yl)-N^3-(5,6,7,8-tetrahydro-[1,2,4]triazolo[4,3-a]pyridin-3-yl)cyclohexane-1,3-diamine] | 0.1 to 100 | 0.1 to 100 | 0.1 to 100
